Tests used:
LoVo tumor cells = experiment: colorectal cancer LoVo xenograft model (KRAS mutant); type: in vivo, BALB/c nude mice
Method: (§1) The antitumor activity of Compound (A) was assessed using the colorectal cancer LoVo xenograft model (KRAS mutant) with BALB/c nude mice. Each mouse was inoculated on the right flank subcutaneously with 5×10^6/100 μL LoVo tumor cells for the tumor development. When the mean tumor size reached 207 mm^3, animals were randomized into 4 groups (10 animals/group), and the treatments were initiated according to Table 4.
(§2) Study endpoints included daily body weight, clinical observations and tumor volume.

SW837 cells [1] = experiment: CellTiter-Glo (CTG) cell viability assay, SW837 cells; type: cell-based; conditions: Homo sapiens, 72 h, sotorasib 12 nM, Compound (A) 1000 nM, single agent or combination of both
Method: (§3) 20,000 H23 cells were incubated in a 96 well plate as a triplicate with 40 nM of sotorasib or 120 nM of Compound (A) as a single agent or the combination of both for 72 h (FIG. 2). 20,000 MiaPaca-2 cells were incubated in a 96 well plate as a triplicate with 350 nM of sotorasib or 1000 nM of Compound (A) as a single agent or the combination of both for 72 h (FIG. 3). 20,000 H358 cells were incubated in a 96 well plate as a triplicate with 10 nM of sotorasib or 300 nM of Compound (A) as a single agent or the combination of both for 72 h (FIG. 4). 20,000 SW837 cells were incubated in a 96 well plate as a triplicate with 12 nM of sotorasib or 1000 nM of Compound (A) as a single agent or the combination of both for 72 h (FIG. 5). For each cell line, the cell viability was assessed using a CellTiter-Glo® (CTG) assay.

SW1116 tumor cells = experiment: colorectal cancer SW1116 xenograft model (TP53 mutant; KRAS mutant); type: in vivo
Method: as §1, with “SW1116” for “LoVo”, “(TP53 mutant; KRAS” for “(KRAS”, “NOD/SCID” for “BALB/c”, “1×10^7 (+High Concentration Matrigel)/200” for “5×10^6/100”, “229” for “207”, “6.” for “4.”
as §2

MiaPaca-2 cells [2] = experiment: CellTiter-Glo (CTG) cell viability assay, MiaPaca-2 cells; type: cell-based; conditions: Homo sapiens, MIA PaCa-2, 72 h, sotorasib 350 nM, Compound (A) 1000 nM, single agent or combination of both
Method: as §3

H23 cells = experiment: CellTiter-Glo (CTG) cell viability assay, H23 cells; type: cell-based; conditions: Homo sapiens, NCI-H23, 72 h, sotorasib 40 nM, Compound (A) 120 nM, single agent or combination of both
Method: as §3

MiaPaca-2 cells [3] = experiment: MiaPaca-2 subcutaneous xenograft, tumor growth; type: in vivo, Mice; conditions: MiaPaca-2 xenograft, Compound (A) 80 mg/kg p.o. qd x21, sotorasib 10 mg/kg or MRTX849 10 mg/kg p.o.
Method: (§4) Tumor volumes were evaluated twice per week to calculate tumor volume over time, and mice were weighed twice per week as a surrogate for signs of toxicity. Tumor growth inhibition (TGI) was calculated using the following equation TGI=(1−(Td−T0)/(Cd−C0))×100%. Td and Cd are the mean tumor volumes of the treated and control animals, and T0 and C0 are the mean tumor volumes of the treated and control animals at the start of the experiment.

H358 cells = experiment: CellTiter-Glo (CTG) cell viability assay, H358 cells; type: cell-based; conditions: Homo sapiens, NCI-H358, 72 h, sotorasib 10 nM, Compound (A) 300 nM, single agent or combination of both
Method: as §3

SW1463 cells = experiment: SW1463 subcutaneous xenograft, tumor growth; type: in vivo, Mice; conditions: Compound (A) 80 mg/kg p.o. qd x21, sotorasib 30 mg/kg p.o.
Method: Mice were inoculated with SW1463 cells subcutaneously on the right flank with the single cell suspension of 95% viable tumor cells (1×10^7) in 100 μL L-15 Matrigel mixture (1:1 ratio) without serum for the tumor development. The treatment was started when the mean tumor size reached approximately 200 mm^3 (with individual tumor range between 180-220 mm^3). Animals were randomly distributed into treatment groups of 8 animals each and dosed with vehicle (top line indicated with circles) and indicated compounds at indicated dosage and frequency shown in FIG. 11 and Table 10. In FIG. 11, single agent activity was shown with Compound (A) and sotorasib at the indicated doses, and the bottom line is Compound (A) 80 mg/kg p.o. qd×21+sotorasib 30 mg/kg p.o. pd×21.
as §4, with “experiment. The tumor regression was defined as (1−(Td/T0))×100% tumor volume (TV) decrease (Td terminal TV divided by T0 initial TV). […]” for “experiment.”

SW837 cells [4] = experiment: SW837 subcutaneous xenograft, tumor growth; type: in vivo, Mice; conditions: Compound (A) 60 mg/kg p.o. qd x18, sotorasib 30 mg/kg p.o.
Method: Mice were inoculated with SW837 cells subcutaneously on the right flank with the single cell suspension of 95% viable tumor cells (1×10^7) in 100 μL L-15 Matrigel mixture (1:1 ratio) without serum for the tumor development. The treatment was started when the mean tumor size reached approximately 200 mm^3 (with individual tumor range between 180-220 mm^3). Animals were randomly distributed into treatment groups of 8 animals each and dosed with vehicle (top line indicated with circles) and indicated compounds at indicated dosage and frequency shown in FIG. 6 and Table 3. In FIG. 6, single agent activity was shown with Compound (A) and sotorasib at the indicated doses. In addition, the bottom line is Compound (A) 60 mg/kg p.o. qd×18+sotorasib 30 mg/kg p.o. pd×18. […] Tumor volumes were evaluated twice per week to calculate tumor volume over time, and mice were weighed twice per week as a surrogate for signs of toxicity. Tumor growth inhibition (TGI) was calculated using the following equation TGI=(1−(Td−T0)/(Cd−C0))×100%. Td and Cd are the mean tumor volumes of the treated and control animals, and T0 and C0 are the mean tumor volumes of the treated and control animals at the start of the experiment. The tumor regression was defined as (1−(Td/T0))×100% tumor volume (TV) decrease (Td terminal TV divided by T0 initial TV). […]

Row | SMILES | TGI (%) (LoVo tumor cells; 40 mg/kg/day p.o. qd x 28) | TGI (%) (LoVo tumor cells; 60 mg/kg/day p.o. qd x 28) | TGI (%) (LoVo tumor cells; 80 mg/kg/day p.o. qd x 28) | mean body weights (LoVo tumor cells; 40, 60, 80 mg/kg/day) | clinical observations (LoVo tumor cells; any dose group (40, 60, 80 mg/kg/day)) | inhibition at 1 µM (SW837 cells [1]) | TGI (%) (SW1116 tumor cells; 40 mg/kg/day p.o. qd x 28) | TGI (%) (SW1116 tumor cells; 60 mg/kg/day p.o. qd x 28) | TGI (%) (SW1116 tumor cells; 80 mg/kg/day p.o. qd x 28) | tolerability (SW1116 tumor cells; 40, 60, 80 mg/kg/day) | inhibition at 1 µM (MiaPaca-2 cells [2]) | inhibition at 0.12 µM (H23 cells) | TGI % (DAY 21) (MiaPaca-2 cells [3]) | inhibition at 0.3 µM (H358 cells) | TGI % (DAY 21) (SW1463 cells) | TGI % (DAY 18) (SW837 cells [4]) | inhibition at 0.012 µM (SW837 cells [1]) | inhibition at 0.35 µM (MiaPaca-2 cells [2]) | inhibition at 0.04 µM (H23 cells) | inhibition at 0.01 µM (H358 cells)
1 | C=CCn1c(=O)c2cnc(Nc3ccc(N4CCN(C)CC4)cc3)nc2n1-c1ccc2c(n1)[C@@](O)(CC)CC2 [Compound (A)] | 21.4% | 32.1% | 70.3% | no significant impact of treatments on mean body weights | no adverse clinical observations | 28.8% | 49.0% | 75.1% | 98.5% | generally well tolerated for the majority of study animals | 47% | 16.5% | 50% | 31.5% | 57% | 72% |  |  |  | 
2 | C=CC(=O)N1CCN(c2nc(=O)n(-c3c(C)ccnc3C(C)C)c3nc(-c4c(O)cccc4F)c(F)cc23)[C@@H](C)C1 [sotorasib, reference compound] |  |  |  |  |  |  |  |  |  |  |  |  | 81% |  | 73% | 80% | 20.7% | 39% | 27.8% | 24%

— patent US20240335447A1, “WEE1 INHIBITOR FOR CANCER” (Recurium IP Holdings, LLC, priority 2021, published 2024)
